According to the NIST ThermoML archive (doi:10.1021/je7003148):
Numbers after ± are expanded uncertainties.

Experiment: cn = amount concentration of the nth substance listed, in mol/dm3
Conditions: 298 K; for surface tension liquid-gas: Ring tensiometer; for kinematic viscosity / speed of sound / mass density: 101.33 kPa, Liquid; for kinematic viscosity: Capillary tube (Ostwald / Ubbelohde) method; for speed of sound: Sing-around technique in a fixed-path interferometer

SMILES: CCCCCCCCCCCCCCCCCC[N+](C)(C)C.[Br-] [N,N,N-trimethyl-1-octadecanaminium bromide] + O
- surface tension liquid-gas (c1 = 0.001): 62.3 ± 0.8 mN/m
- surface tension liquid-gas (c1 = 0.002): 54.2 ± 0.7 mN/m
- surface tension liquid-gas (c1 = 0.003): 48.7 ± 0.6 mN/m
- surface tension liquid-gas (c1 = 0.004): 45 ± 0.6 mN/m
- surface tension liquid-gas (c1 = 0.005): 42.8 ± 0.6 mN/m
- surface tension liquid-gas (c1 = 0.006): 42 ± 0.6 mN/m
- surface tension liquid-gas (c1 = 0.008): 41.4 ± 0.6 mN/m
- surface tension liquid-gas (c1 = 0.01): 41.3 ± 0.6 mN/m
- surface tension liquid-gas (c1 = 0.013): 41 ± 0.6 mN/m
- surface tension liquid-gas (c1 = 0.016): 40.8 ± 0.6 mN/m
- surface tension liquid-gas (c1 = 0.02): 40.4 ± 0.6 mN/m
- surface tension liquid-gas (c1 = 0.025): 40.2 ± 0.5 mN/m
- surface tension liquid-gas (c1 = 0.03): 39.6 ± 0.5 mN/m
- surface tension liquid-gas (c1 = 0.04): 39.3 ± 0.5 mN/m
- kinematic viscosity (c1 = 0.001): 8.957e-07 ± 6.1e-09 m2/s
- kinematic viscosity (c1 = 0.002): 8.958e-07 ± 6.1e-09 m2/s
- kinematic viscosity (c1 = 0.003): 8.958e-07 ± 6.1e-09 m2/s
- kinematic viscosity (c1 = 0.004): 8.958e-07 ± 6.1e-09 m2/s
- kinematic viscosity (c1 = 0.005): 8.959e-07 ± 6.1e-09 m2/s
- kinematic viscosity (c1 = 0.006): 8.959e-07 ± 6.1e-09 m2/s
- kinematic viscosity (c1 = 0.008): 8.96e-07 ± 6.1e-09 m2/s
- kinematic viscosity (c1 = 0.01): 8.96e-07 ± 6.1e-09 m2/s
- kinematic viscosity (c1 = 0.013): 8.961e-07 ± 6.2e-09 m2/s
- kinematic viscosity (c1 = 0.016): 8.962e-07 ± 6.2e-09 m2/s
- kinematic viscosity (c1 = 0.02): 8.963e-07 ± 6.2e-09 m2/s
- kinematic viscosity (c1 = 0.025): 8.965e-07 ± 6.2e-09 m2/s
- kinematic viscosity (c1 = 0.03): 8.966e-07 ± 6.2e-09 m2/s
- kinematic viscosity (c1 = 0.04): 8.969e-07 ± 6.2e-09 m2/s
- speed of sound (c1 = 0.001): 1497.2 ± 0.9 m/s
- speed of sound (c1 = 0.002): 1497.7 ± 0.9 m/s
- speed of sound (c1 = 0.003): 1498 ± 0.9 m/s
- speed of sound (c1 = 0.004): 1498.2 ± 0.9 m/s
- speed of sound (c1 = 0.005): 1498 ± 0.9 m/s
- speed of sound (c1 = 0.006): 1497.8 ± 0.9 m/s
- speed of sound (c1 = 0.008): 1497.2 ± 0.9 m/s
- speed of sound (c1 = 0.01): 1496.7 ± 0.9 m/s
- speed of sound (c1 = 0.013): 1496 ± 0.9 m/s
- speed of sound (c1 = 0.016): 1495.2 ± 0.9 m/s
- speed of sound (c1 = 0.02): 1494.2 ± 0.9 m/s
- speed of sound (c1 = 0.025): 1492.7 ± 0.9 m/s
- speed of sound (c1 = 0.03): 1491.6 ± 0.9 m/s
- speed of sound (c1 = 0.04): 1489.2 ± 0.9 m/s
- mass density (c1 = 0.001): 997.053 ± 0.27 kg/m3
- mass density (c1 = 0.002): 997.053 ± 0.27 kg/m3
- mass density (c1 = 0.003): 997.053 ± 0.27 kg/m3
- mass density (c1 = 0.004): 997.053 ± 0.27 kg/m3
- mass density (c1 = 0.005): 997.053 ± 0.27 kg/m3
- mass density (c1 = 0.006): 997.054 ± 0.27 kg/m3
- mass density (c1 = 0.008): 997.054 ± 0.27 kg/m3
- mass density (c1 = 0.01): 997.054 ± 0.27 kg/m3
- mass density (c1 = 0.013): 997.054 ± 0.27 kg/m3
- mass density (c1 = 0.016): 997.054 ± 0.27 kg/m3
- mass density (c1 = 0.02): 997.055 ± 0.27 kg/m3
- mass density (c1 = 0.025): 997.055 ± 0.27 kg/m3
- mass density (c1 = 0.03): 997.056 ± 0.27 kg/m3
- mass density (c1 = 0.04): 997.057 ± 0.27 kg/m3

SMILES: CCCCCCCCCCCCCC[N+](C)(C)C.[Br-] [tetradecyltrimethylammonium bromide] + O
- surface tension liquid-gas (c1 = 0.001): 60.4 ± 0.8 mN/m
- surface tension liquid-gas (c1 = 0.002): 51.7 ± 0.7 mN/m
- surface tension liquid-gas (c1 = 0.003): 44 ± 0.6 mN/m
- surface tension liquid-gas (c1 = 0.005): 40.6 ± 0.6 mN/m
- surface tension liquid-gas (c1 = 0.01): 38 ± 0.5 mN/m
- surface tension liquid-gas (c1 = 0.015): 37.8 ± 0.5 mN/m
- surface tension liquid-gas (c1 = 0.02): 37.6 ± 0.5 mN/m
- surface tension liquid-gas (c1 = 0.025): 37.4 ± 0.5 mN/m
- surface tension liquid-gas (c1 = 0.03): 37.1 ± 0.5 mN/m
- surface tension liquid-gas (c1 = 0.035): 37 ± 0.5 mN/m
- surface tension liquid-gas (c1 = 0.04): 36.9 ± 0.5 mN/m
- surface tension liquid-gas (c1 = 0.045): 36.8 ± 0.5 mN/m
- surface tension liquid-gas (c1 = 0.05): 36.7 ± 0.5 mN/m
- surface tension liquid-gas (c1 = 0.055): 36.7 ± 0.5 mN/m
- kinematic viscosity (c1 = 0.001): 8.962e-07 ± 6.1e-09 m2/s
- kinematic viscosity (c1 = 0.002): 8.968e-07 ± 6.2e-09 m2/s
- kinematic viscosity (c1 = 0.003): 8.991e-07 ± 6.2e-09 m2/s
- kinematic viscosity (c1 = 0.005): 9.015e-07 ± 6.2e-09 m2/s
- kinematic viscosity (c1 = 0.01): 9.078e-07 ± 6.2e-09 m2/s
- kinematic viscosity (c1 = 0.015): 9.144e-07 ± 6.3e-09 m2/s
- kinematic viscosity (c1 = 0.02): 9.215e-07 ± 6.3e-09 m2/s
- kinematic viscosity (c1 = 0.025): 9.29e-07 ± 6.4e-09 m2/s
- kinematic viscosity (c1 = 0.03): 9.368e-07 ± 6.4e-09 m2/s
- kinematic viscosity (c1 = 0.035): 9.45e-07 ± 6.5e-09 m2/s
- kinematic viscosity (c1 = 0.04): 9.537e-07 ± 6.5e-09 m2/s
- kinematic viscosity (c1 = 0.045): 9.627e-07 ± 6.6e-09 m2/s
- kinematic viscosity (c1 = 0.05): 9.722e-07 ± 6.7e-09 m2/s
- kinematic viscosity (c1 = 0.055): 9.82e-07 ± 6.7e-09 m2/s
- speed of sound (c1 = 0.001): 1496.9 ± 0.9 m/s
- speed of sound (c1 = 0.002): 1497.2 ± 0.9 m/s
- speed of sound (c1 = 0.003): 1497.3 ± 0.9 m/s
- speed of sound (c1 = 0.005): 1497.4 ± 0.9 m/s
- speed of sound (c1 = 0.01): 1497.5 ± 0.9 m/s
- speed of sound (c1 = 0.015): 1497.6 ± 0.9 m/s
- speed of sound (c1 = 0.02): 1497.7 ± 0.9 m/s
- speed of sound (c1 = 0.025): 1497.8 ± 0.9 m/s
- speed of sound (c1 = 0.03): 1497.8 ± 0.9 m/s
- speed of sound (c1 = 0.035): 1497.9 ± 0.9 m/s
- speed of sound (c1 = 0.04): 1497.9 ± 0.9 m/s
- speed of sound (c1 = 0.045): 1498 ± 0.9 m/s
- speed of sound (c1 = 0.05): 1498.1 ± 0.9 m/s
- speed of sound (c1 = 0.055): 1498.1 ± 0.9 m/s
- mass density (c1 = 0.001): 997.062 ± 0.26 kg/m3
- mass density (c1 = 0.002): 997.064 ± 0.27 kg/m3
- mass density (c1 = 0.003): 997.087 ± 0.27 kg/m3
- mass density (c1 = 0.005): 997.106 ± 0.27 kg/m3
- mass density (c1 = 0.01): 997.153 ± 0.27 kg/m3
- mass density (c1 = 0.015): 997.204 ± 0.27 kg/m3
- mass density (c1 = 0.02): 997.268 ± 0.26 kg/m3
- mass density (c1 = 0.025): 997.307 ± 0.26 kg/m3
- mass density (c1 = 0.03): 997.349 ± 0.26 kg/m3
- mass density (c1 = 0.035): 997.402 ± 0.26 kg/m3
- mass density (c1 = 0.04): 997.458 ± 0.26 kg/m3
- mass density (c1 = 0.045): 997.5 ± 0.26 kg/m3
- mass density (c1 = 0.05): 997.545 ± 0.26 kg/m3
- mass density (c1 = 0.055): 997.604 ± 0.26 kg/m3

SMILES: O [water] + CCCCCCCCCCCCCC[N+](C)(C)C.[Br-]
- surface tension liquid-gas (c2 = 0): 72.5 ± 0.9 mN/m
- kinematic viscosity (c2 = 0): 8.957e-07 ± 6.1e-09 m2/s

SMILES: O [water] + CCCCCCCCCCCCCCCCCC[N+](C)(C)C.[Br-]
- surface tension liquid-gas (c2 = 0): 72.5 ± 0.9 mN/m
- kinematic viscosity (c2 = 0): 8.957e-07 ± 6.1e-09 m2/s
